Test results as given in ChEMBL document CHEMBL1149802, “Chemiluminescent high-throughput microassay applied to imidazo[2,1-b]thiazole derivatives as potential acetylcholinesterase and butyrylcholinesterase inhibitors” (Eur J Med Chem, 2008).

target: Acetylcholinesterase (Electrophorus electricus, UniProt O42275); experiment: Inhibition of electric eel acetylcholine esterase type V-S in presence of acetylcholine substrate by chemiluminescent assay
Sequence (O42275 whole entry): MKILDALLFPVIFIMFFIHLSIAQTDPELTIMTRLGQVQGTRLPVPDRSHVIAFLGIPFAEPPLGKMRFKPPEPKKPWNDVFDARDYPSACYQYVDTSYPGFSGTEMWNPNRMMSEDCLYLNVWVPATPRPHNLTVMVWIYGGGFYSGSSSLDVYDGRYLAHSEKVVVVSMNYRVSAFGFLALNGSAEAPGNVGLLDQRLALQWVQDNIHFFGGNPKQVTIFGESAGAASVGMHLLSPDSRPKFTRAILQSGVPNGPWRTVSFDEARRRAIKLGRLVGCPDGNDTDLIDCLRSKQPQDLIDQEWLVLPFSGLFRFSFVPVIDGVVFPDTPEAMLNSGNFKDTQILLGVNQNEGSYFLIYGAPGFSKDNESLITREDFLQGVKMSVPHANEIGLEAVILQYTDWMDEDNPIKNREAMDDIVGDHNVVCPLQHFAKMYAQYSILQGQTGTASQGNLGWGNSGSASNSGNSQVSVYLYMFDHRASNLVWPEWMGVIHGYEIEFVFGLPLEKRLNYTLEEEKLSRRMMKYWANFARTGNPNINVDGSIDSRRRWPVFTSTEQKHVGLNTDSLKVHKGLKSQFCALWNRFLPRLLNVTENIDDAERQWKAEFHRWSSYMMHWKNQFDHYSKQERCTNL

Q: `CC(=O)N1CCN(/N=C/c2c(Cl)nc3sccn23)C1=O` was tested. Which IC50 did it give?
A: The IC50 was 60 µM.

Q: With `CC(=O)N1CCN(/N=C/c2c(C)nc3sccn23)C1=O` as the compound, how does the IC50 read?
A: The IC50 was 35 µM.

Q: For `O=C(c1ccccc1)N1CCN(/N=C/c2c(Cl)nc3sccn23)C1=O`, which IC50 is on record?
A: The IC50 was 4.2 µM.
